Experimental data taken from paper PMC9865903, “Improving the Antimycobacterial Drug Clofazimine through Formation of Organic Salts by Combination with Fluoroquinolones” (International Journal of Molecular Sciences, 2023).
pIC50: −log10 of the molar value. “And” between values parts separate entries of the source, which are not always exact repeats. Identical values can stand only once.

Experiments:
[1] = cited from earlier work
[2] = Net charge at physiological pH; format: physicochemical; settings: at physiological pH 7.4
Experimental: Table 1 Physico-chemical properties and in vitro effects of the API-OSs and their parent drugs. The compounds were tested against both axenic cultures of M. avium 2447 SmT (IC50) and mammalian host cells (bone marrow-derived macrophages, BMM, LC50) infected with M. avium 2447 SmT. ^1. | column: Net Charge ^2

[3] = in vivo, po; cited from earlier work
[4] = design: method as in PMID 7617530, PMID 35300192; settings: due to poor solubility in aqueous/polar media; cited from earlier work
[5] = physchem; settings: organic solvent or mixture
Source text: DMSO has been previously established as an adequate solvent for studies focused on Clf, including susceptibility testing on Mycobacteria.

[6] = Toxicity to infected host macrophages, resazurin reduction; format: cell-based, murine (C57BL/6 mice); settings: male, C57BL/6, mouse; BMM infected with M. avium 2447 SmT, 5 days at 37 °C and 7% CO2, resazurin; 4PL interpolation; parentheses = 95% confidence interval; read-out: LC50
Experimental: Considering that, after invading its mammalian host, M. avium replicates mainly inside macrophages, the toxicity of test compounds to infected murine bone marrow-derived macrophages (BMM) was also assessed. This was carried out by treating BMM infected with M. avium 2447 SmT with increasing concentrations of the test compounds for 5 days at 37 °C and 7% CO2. Macrophage viability was assessed through a resazurin reduction assay. As shown in Table 1 and Figure 4, though being more toxic to mammalian cells than their parent fluoroquinolones, the Clf-derived OSs seem less toxic to BMM than Clf itself. We are aware that the confidence intervals for LD50 values shown in Table 1 for Clf and its derived OSs have some degree of overlap which, alongside the large standard deviations depicted on the macrophage viability curves shown in Figure 4, are not statistically significant different.
Macrophages were derived from the bone marrow of male C57BL/6 mice bred at the i3S animal facility and infected with M. avium 2447 SmT as described previously. Immediately after infection, BMM were treated with different concentrations of each compound. Each condition was tested in triplicate. The intracellular growth of M. avium 2447 SmT was evaluated 5 days after infection, by colony-forming units (CFUs) assay, plating the bacteria in Middlebrook 7H10 agar (BD DifcoTM, Fisher Scientific, Porto Salvo, Portugal) supplemented with 10% Oleic Acid-Albumin-Dextrose-Catalase (OADC; Merck KGaA, Darmstadt, Germany) for at least 7 days at 37 °C. The viability of macrophages was determined by resazurin reduction as detailed above for mycobacteria.
The viability of both mycobacteria and host macrophages was determined by resazurin reduction as detailed above. IC50 (concentration that inhibits 50% of mycobacterial growth after 7 days of incubation) and LD50 (concentration that inhibits 50% of macrophage viability) values were interpolated by fitting the experimental data through a 4PL nonlinear sigmoidal curve using the GraphPad Prism software version 9 (GraphPad Software Inc., La Jolla, CA, USA). […]

[7] = tested on: M. avium 2447 SmT; assay: Antimycobacterial activity in axenic culture, broth microdilution with resazurin; format: cell-based; settings: Mycobacterium avium, 168 h, 7 days at 37 °C, 4PL interpolation, parentheses = 95% confidence interval
Experimental: The susceptibility of M. avium to the API-OSs and their parent drugs was first assessed in axenic culture to determine the IC50 of each test compound. To this end, the bacteria were incubated with increasing concentrations of the compounds for 7 days at 37 °C and their viability was assessed by the resazurin assay.
Mycobacterium avium 2447 smooth transparent (SmT) strain (kindly provided by Dr. F. Portaels, Institute of Tropical Medicine, Antwerp, Belgium) was grown to the mid-log phase in Middlebrook 7H9 medium (BD Difco^TM, Fisher Scientific, Porto Salvo, Portugal) containing 0.2% of glycerol (VWR International, Carnaxide, Portugal) and 10% of Albumin-Dextrose-Catalase (ADC, Merck KGaA, Darmstadt, Germany) supplement at 37 °C, as described previously.
The antimicrobial activity of the different compounds was assessed by broth microdilution, following the Clinical and Laboratory Standards Institute (CLSI) guidelines and as described previously, using stock solutions of the compounds in DMSO, due to the negligible solubility of Clf in water. Briefly, M. avium was grown in Middlebrook 7H9 medium to the exponential phase and 1 to 5 × 10^5 CFU/mL of bacteria was seeded in 96-well plates with increasing concentrations of the compounds. […] After 6 days of incubation, bacterial viability was assessed by resazurin reduction. Then, 10% (v/v) of resazurin (Sigma-Aldrich, St. Louis, MO, USA) at 2.5 mM in phosphate-buffered saline (PBS, Sigma-Aldrich, St. Louis, MO, USA) was added to each well, and after 24 h of incubation at 37 °C, the fluorescence of resorufin, resulting from the conversion of resazurin by metabolically active cells, was measured at λex = 530 nm and λem = 590 nm in a Synergy^TM Mx microplate reader from BioTek (Agilent Technologies Inc., Santa Clara, CA, USA) using the Gen5 software also from BioTek. The results are expressed as the percentage of the fluorescence obtained in experimental wells relative to the fluorescence obtained in nontreated wells.
The viability of both mycobacteria and host macrophages was determined by resazurin reduction as detailed above. […]

[8] = Simultaneous thermal analysis (STA: thermogravimetry with DSC); format: physicochemical; settings: heating from room temperature to 500 °C at 5 °C/min, value in parentheses after melting point
Source text: Considering that thermal stability is an important issue for any API or derived formulation, both API-OSs were next tested by simultaneous thermal analysis (STA) which combines thermogravimetry with differential scanning calorimetry. Thermograms were obtained for the API-OSs and their parent fluoroquinolones (Figure 2), providing their respective melting points and decomposition temperatures. As shown in both Figure 2 and Table 1, the two new API-OSs have melting points lower than those of their respective parent APIs, as expected, but in all cases well above 100 °C, which is generally acknowledged as the threshold temperature separating common ILs from other types of GUMBOS. […] Therefore, the thermostability of this parent antimycobacterial drug is improved when it is forming an ionic pair with the selected fluoroquinolones.
The thermal stability of the compounds was evaluated using a Hitachi STA7200RV instrument (Scancsi, Vila Nova de Gaia, Portugal), following the manufacturer’s instructions. The compounds were subjected to heating from room temperature to 500 °C at a speed of 5 °C/min, obtaining the thermograms provided in Figure 2.

| Compound | solubility in water [1] | Net Charge [2] | absorption rates in humans [3] [%] | Biopharmaceutics Classification System class [4] | solubility [5] | CC50 at 5 days [6] [µM] | pIC50 [7] | Decomposition Temperature [8] |
| --- | --- | --- | --- | --- | --- | --- | --- | --- |
| CC(C)/N=c1\cc2n(-c3ccc(Cl)cc3)c3ccccc3nc-2cc1Nc1ccc(Cl)cc1 [Clf, clofazimine] | virtually insoluble | +1 | 45 to 62 | class II | 4800 µg/mL and 10200 µM | 4.1 | 6.48 | 221.9 (258.0) °C |
| CCn1cc(C(=O)O)c(=O)c2cc(F)c(N3CCNCC3)cc21 [Nf, norfloxacin] | – | −1 | – | – | 11000 µg/mL and 34400 µM | > 100 | 5.10 | 206.1 (222.0) °C |
| CC1COc2c(N3CCN(C)CC3)c(F)cc3c(=O)c(C(=O)O)cn1c23 (centres unmarked) [Of, ofloxacin] | – | −1 | – | – | – | > 100 | 5.41 | 274.8 (318.8) °C |
